According to patent publication US10730815B2, “Method of producing purified stilbene compounds” (MORINAGA & CO., LTD., priority 2014, dated 2020):
One block for each compound: values may come before it.

Assay: Precipitation of various stilbene compounds by γ-CD: concentration in supernatant (HPLC)
Format: physicochemical
Method: γ-CD solutions of six different concentrations (42.78, 85.56, 106.95, 128.33, 171.11, 213.89 mg/mL) were prepared.
The mixed solutions were stirred under light shielding conditions at 25° C. for 24 hours. Subsequently, they were subjected to centrifugation at 15,000 rpm at 25° C. for 5 minutes to collect the supernatants. These supernatants were further subjected to centrifugation using the same conditions to obtain another batch of supernatants.
Resveratrol (denoted by “Res” in the figure), rhapontigenin (denoted by “Rha” in the figure), and isorhapontigenin (denoted by “Isorha” in the figure) were used as the stilbene compounds to prepare respective solutions of the stilbene compounds. To each solution, γ-CD was added. Precipitation of these stilbene compounds by γ-CD and the relation between the concentration of γ-CD and the precipitation of the stilbene compounds were examined. Procedures for the preparation of the solutions and the measurement using HPLC were similar to those described in the above Example 1(3).

Concentration of Rha in liquid (γ-CD 0 mg/mL final): 97000 ng/mL | Concentration of Rha in liquid (γ-CD 12.8 mg/mL final): 60000 ng/mL | Concentration of Rha in liquid (γ-CD 25.7 mg/mL final): 20000 ng/mL | Concentration of Rha in liquid (γ-CD 32.1 mg/mL final): 17000 ng/mL | Concentration of Rha in liquid (γ-CD 38.5 mg/mL final): 13000 ng/mL | Concentration of Rha in liquid (γ-CD 51.3 mg/mL final): ≤10000 ng/mL | Concentration of Rha in liquid (γ-CD 64.2 mg/mL final): ≤10000 ng/mL
SMILES: COc1ccc(/C=C/c2cc(O)cc(O)c2)cc1O [Rha, rhapontigenin]

Concentration of Isorha in liquid (γ-CD 0 mg/mL final): 190000 ng/mL | Concentration of Isorha in liquid (γ-CD 12.8 mg/mL final): 0 ng/mL | Concentration of Isorha in liquid (γ-CD 25.7 mg/mL final): 0 ng/mL | Concentration of Isorha in liquid (γ-CD 32.1 mg/mL final): 0 ng/mL | Concentration of Isorha in liquid (γ-CD 38.5 mg/mL final): 0 ng/mL | Concentration of Isorha in liquid (γ-CD 51.3 mg/mL final): 0 ng/mL | Concentration of Isorha in liquid (γ-CD 64.2 mg/mL final): 0 ng/mL
SMILES: COc1cc(/C=C/c2cc(O)cc(O)c2)ccc1O [Isorha, isorhapontigenin]

Concentration of Res in liquid (γ-CD 0 mg/mL final): 28000 ng/mL | Concentration of Res in liquid (γ-CD 12.8 mg/mL final): 20000 ng/mL | Concentration of Res in liquid (γ-CD 25.7 mg/mL final): 12000 ng/mL | Concentration of Res in liquid (γ-CD 32.1 mg/mL final): 10000 ng/mL | Concentration of Res in liquid (γ-CD 38.5 mg/mL final): 8200 ng/mL | Concentration of Res in liquid (γ-CD 51.3 mg/mL final): 5800 ng/mL | Concentration of Res in liquid (γ-CD 64.2 mg/mL final): 3700 ng/mL
SMILES: Oc1ccc(/C=C/c2cc(O)cc(O)c2)cc1 [Res, Resveratrol]
